Among the test systems are SK-MEL-28 melanoma; U251 CNS; HS 578T breast; M14 melanoma; T-47D breast; MALME-3M melanoma; NCI-H23 lung; PC-3 prostate; SK-MEL-5 melanoma; 786-0 renal; OVCAR-4 ovarian; SK-MEL-2 melanoma.
Common to all, as to assay: DTP human tumour cell line panel, 48 h

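48-hour exposure; five concentrations; linearly interpolated endpoints. TGI: concentration producing complete growth inhibition.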

The term TGI denotes the concentration giving total growth inhibition. Low values mean greater sensitivity of the cells, high ones lower sensitivity of the cells.

Consider `COc1ccc(N2C(=O)C3c4[nH]c5ccc(OCc6ccccc6)cc5c4C4CCC(C(C)C)CC4C3C2=O)cc1` (centres undefined), for which the TGI with SK-MEL-28 melanoma was over 100 µM; with U251 CNS, over 73.1 µM; in the assay on HS 578T breast it was over 49.8 µM; in the assay with M14 melanoma, over 100 µM; in the assay on T-47D breast it was over 100 µM; in the assay on MALME-3M melanoma it was over 100 µM. In addition, the TGI with NCI-H23 lung was over 45.3 µM; in the assay with PC-3 prostate, over 100 µM; in the assay on SK-MEL-5 melanoma, over 100 µM; in the assay on 786-0 renal, over 47.6 µM; in the assay with OVCAR-4 ovarian it was over 100 µM; in the assay with SK-MEL-2 melanoma, 40.3 µM.
Turning to `CC1(C)CC2(C)ON=C(c3ccccc3)N2c2ccccc2N1` (centres undefined), the TGI with SK-MEL-28 melanoma was 57.5 µM; in the assay with U251 CNS, 41.1 µM; in the assay on HS 578T breast, 42.6 µM; with M14 melanoma it was 40.6 µM; with T-47D breast, 56.7 µM; in the assay on MALME-3M melanoma, 55.3 µM. Besides, the TGI with NCI-H23 lung was 82.1 µM; in the assay on PC-3 prostate it was 42.1 µM; in the assay on SK-MEL-5 melanoma, 30.7 µM; with 786-0 renal it was 57.3 µM; in the assay on OVCAR-4 ovarian, over 100 µM; in the assay with SK-MEL-2 melanoma it was 40.1 µM.
In the case of `c1ccc(CSC(SCc2ccccc2)c2ccc3c(c2)OCO3)cc1`, the TGI with SK-MEL-28 melanoma, with U251 CNS, in the assay with HS 578T breast, in the assay on M14 melanoma, in the assay on T-47D breast and in the assay with MALME-3M melanoma was over 10 µM in each case. For the same compound, the total growth inhibition concentration (TGI) with NCI-H23 lung, in the assay with PC-3 prostate, in the assay on SK-MEL-5 melanoma, in the assay with 786-0 renal, in the assay with OVCAR-4 ovarian and with SK-MEL-2 melanoma was over 10 µM in each case.
In the case of `O=c1oc2c(ccc3c(O)cccc32)c2c1CCCC2`, the TGI in the assay on SK-MEL-28 melanoma is over 100 µM; in the assay with U251 CNS it was 55.9 µM; in the assay with HS 578T breast, over 100 µM; in the assay with M14 melanoma, over 100 µM; in the assay with T-47D breast it was over 100 µM; in the assay with MALME-3M melanoma it was over 100 µM. For the same compound, the TGI with NCI-H23 lung, in the assay with PC-3 prostate, in the assay on SK-MEL-5 melanoma, in the assay on 786-0 renal, with OVCAR-4 ovarian and in the assay on SK-MEL-2 melanoma was over 100 µM throughout.
Turning to `Cc1ncc(CO)c(C=NCCCCCCN=Cc2c(CO)cnc(C)c2O)c1O`, the TGI in the assay on SK-MEL-28 melanoma, with U251 CNS, in the assay on HS 578T breast, in the assay with M14 melanoma, in the assay with T-47D breast and with MALME-3M melanoma was over 100 µM each time. For the same compound, the concentration for total growth inhibition (TGI) in the assay with NCI-H23 lung, with PC-3 prostate, in the assay on SK-MEL-5 melanoma, with 786-0 renal, in the assay with OVCAR-4 ovarian and with SK-MEL-2 melanoma was over 100 µM throughout.
Turning to `COc1cccc(C(=O)N[C@@H]2[C@H](O)[C@@H](CO)O[C@H]2n2cnc3c(N)ncnc32)c1`, the TGI in the assay with SK-MEL-28 melanoma, with U251 CNS, in the assay with HS 578T breast, with M14 melanoma, in the assay on T-47D breast and in the assay on MALME-3M melanoma was over 100 µM each time. In addition, the TGI in the assay with NCI-H23 lung, with PC-3 prostate, with SK-MEL-5 melanoma, in the assay on 786-0 renal, in the assay with OVCAR-4 ovarian and in the assay on SK-MEL-2 melanoma was over 100 µM in each case.
As for `CCOC(=O)c1ccc(Nc2cnc3ccc(C(F)(F)F)cc3n2)cc1`, the TGI with SK-MEL-28 melanoma is 43 µM; in the assay with U251 CNS, 31.8 µM; with HS 578T breast, 59.1 µM; with M14 melanoma it was over 100 µM; with T-47D breast, 46.7 µM; with MALME-3M melanoma, 79.2 µM. Moreover, the concentration for total growth inhibition (TGI) was 28.5 µM with NCI-H23 lung; 55.5 µM in the assay on PC-3 prostate; 31.2 µM with SK-MEL-5 melanoma; 26.8 µM in the assay on 786-0 renal; 32 µM in the assay with OVCAR-4 ovarian; 33.8 µM with SK-MEL-2 melanoma.
Take `OC1(c2ccc3ccccc3c2)c2c(c3ccccc3c3ccccc23)C2=NCCN21` (centres undefined): the TGI was 6.09 µM with SK-MEL-28 melanoma; 17.7 µM with U251 CNS; 24.2 µM with HS 578T breast; 4.29 µM in the assay with M14 melanoma; over 40.6 µM in the assay on T-47D breast; 38.1 µM in the assay with MALME-3M melanoma. The TGI in the assay with NCI-H23 lung was 47.2 µM; in the assay with PC-3 prostate, over 69.3 µM; with SK-MEL-5 melanoma it was over 100 µM; with 786-0 renal, 25.3 µM; in the assay with OVCAR-4 ovarian, 13.9 µM; in the assay with SK-MEL-2 melanoma, over 46.3 µM.
On to `CN1CCCC(C(=O)OCC(=O)C2(O)CCC3C4CCC5=CC(=O)CCC5(C)C4C(O)CC32C)C1` (centres undefined), for which the TGI with SK-MEL-28 melanoma is 35.4 µM; with U251 CNS, 16 µM; in the assay with HS 578T breast, over 82.9 µM; in the assay on M14 melanoma, 59.3 µM; in the assay on T-47D breast, 34.5 µM; with MALME-3M melanoma, 33.2 µM. For the same compound, the TGI in the assay on NCI-H23 lung is 46.4 µM; in the assay on PC-3 prostate it was 30.7 µM; in the assay on SK-MEL-5 melanoma, 41.3 µM; in the assay with 786-0 renal, 14.3 µM; in the assay on OVCAR-4 ovarian it was 32.5 µM; in the assay on SK-MEL-2 melanoma it was 39.3 µM.
Take `COC(=O)C1(C)OC(C)=NC1(C(=O)OC)C(=O)OC` (centres undefined): the TGI in the assay on SK-MEL-28 melanoma, in the assay with U251 CNS, in the assay with HS 578T breast, in the assay with M14 melanoma, in the assay with T-47D breast and in the assay with MALME-3M melanoma was over 100 µM each time. In addition, the TGI in the assay with NCI-H23 lung, in the assay with PC-3 prostate, in the assay with SK-MEL-5 melanoma, in the assay on 786-0 renal, in the assay on OVCAR-4 ovarian and in the assay with SK-MEL-2 melanoma was over 100 µM in each case.
For `Cc1cc(-c2ccc(C(=O)C(c3ccccc3)(c3ccccc3)c3ccccc3)[nH]2)on1`, the TGI with SK-MEL-28 melanoma is 52.9 µM; in the assay with U251 CNS, 37.1 µM; in the assay with HS 578T breast, over 100 µM; in the assay with M14 melanoma it was 71.8 µM; with T-47D breast, over 100 µM; in the assay on MALME-3M melanoma it was over 100 µM. Moreover, the total growth inhibition concentration (TGI) in the assay on NCI-H23 lung stood at 32.4 µM; in the assay with PC-3 prostate, 49.1 µM; with SK-MEL-5 melanoma, 29.4 µM; with 786-0 renal it was 40.7 µM; in the assay with OVCAR-4 ovarian, 88.1 µM; in the assay with SK-MEL-2 melanoma, 36 µM.
Turning to `CCN1C(=O)CS/C1=N\NC(=O)CSc1nc2ccccc2c(=O)n1CC`, the TGI with SK-MEL-28 melanoma, in the assay with U251 CNS, in the assay on HS 578T breast, in the assay with M14 melanoma, in the assay on T-47D breast and in the assay with MALME-3M melanoma was over 100 µM each time. Also, the TGI in the assay with NCI-H23 lung, in the assay with PC-3 prostate, in the assay with SK-MEL-5 melanoma, with 786-0 renal, in the assay with OVCAR-4 ovarian and in the assay with SK-MEL-2 melanoma was over 100 µM throughout.
Regarding `CCOC(=O)NC(=S)NC(C)c1ccccc1` (centres undefined), the TGI in the assay with SK-MEL-28 melanoma, in the assay on U251 CNS, in the assay with HS 578T breast, in the assay on M14 melanoma, in the assay with T-47D breast and with MALME-3M melanoma was over 100 µM each time. In addition, the TGI with NCI-H23 lung, in the assay with PC-3 prostate, with SK-MEL-5 melanoma, in the assay on 786-0 renal, in the assay on OVCAR-4 ovarian and in the assay on SK-MEL-2 melanoma was over 100 µM throughout.
On to `CCOC(=O)Oc1ccc2c(c1)c(=O)c1c(NCCCN(CC)CC)ccc3nnn2c31`, for which the TGI with SK-MEL-28 melanoma is 33.2 µM; with U251 CNS, 23.6 µM; with HS 578T breast, 40.7 µM; in the assay with M14 melanoma, 25.4 µM; in the assay on T-47D breast it was 31.1 µM; with MALME-3M melanoma, 29.7 µM. The TGI with NCI-H23 lung was found to be 29.3 µM; with PC-3 prostate it was 20.9 µM; in the assay with SK-MEL-5 melanoma, 23.2 µM; in the assay with 786-0 renal, 15.7 µM; with OVCAR-4 ovarian, 20.2 µM; with SK-MEL-2 melanoma, 30 µM.
For the compound `CC(=O)/C(=C(/Br)I)c1ccccc1`, the TGI in the assay on SK-MEL-28 melanoma is 26.5 µM; in the assay with U251 CNS it was 26.5 µM; with HS 578T breast, over 66 µM; in the assay on M14 melanoma, 21.3 µM; with T-47D breast, 13.3 µM; in the assay on MALME-3M melanoma, 23.1 µM. The TGI in the assay with NCI-H23 lung came to 16.8 µM; with PC-3 prostate it was 32.2 µM; in the assay on SK-MEL-5 melanoma, 30.8 µM; in the assay with 786-0 renal, 28 µM; in the assay with OVCAR-4 ovarian, 25 µM; in the assay on SK-MEL-2 melanoma, 15.7 µM.
As for `C/C(=N\NC(=S)Nc1ccc(Cl)cc1)c1nc2ncccc2[nH]1`, the TGI with SK-MEL-28 melanoma is 13.3 µM; in the assay with U251 CNS, 14.5 µM; in the assay on HS 578T breast it was 71.8 µM; in the assay on M14 melanoma, 6.54 µM; with T-47D breast, 20.9 µM; with MALME-3M melanoma, 15.7 µM. For the same compound, the TGI in the assay on NCI-H23 lung amounted to 21.5 µM; in the assay with PC-3 prostate it was 17.4 µM; in the assay with SK-MEL-5 melanoma, 6.5 µM; in the assay with 786-0 renal, 29.7 µM; with OVCAR-4 ovarian, 41.4 µM; with SK-MEL-2 melanoma, 22.5 µM.
Take `CC(Cc1ccc2c(c1)OCO2)N(C)C(=O)C1=CCN(C)CC1` (centres undefined): the TGI with SK-MEL-28 melanoma, with U251 CNS, in the assay with HS 578T breast, in the assay on M14 melanoma, in the assay with T-47D breast and in the assay on MALME-3M melanoma was over 100 µM throughout. The TGI in the assay with NCI-H23 lung, with PC-3 prostate, in the assay with SK-MEL-5 melanoma, with 786-0 renal, in the assay with OVCAR-4 ovarian and in the assay with SK-MEL-2 melanoma was over 100 µM throughout.

Source of the values: PubChem BioAssay (NCI).
